Laboratory results reported in publication PMC2809336, “Antidepressant Interactions with the NMDA NR1-1b Subunit” (Journal of Biophysics, 2008).
Entries after “also recorded” stand apart in the source; their conditions may differ.

Experiments:
Assay type in all cases: binding
[1] = target: T1, NMDA NR1-1b S1S2 domain (Rattus norvegicus, UniProt P35439); assay: Intrinsic tryptophan fluorescence quenching and λ max of emission; details: for Binding to NR1-1b S1S2 by intrinsic tryptophan fluorescence: desipramine, trimipramine, imipramine 137 μM, maprotiline 3.18 mM, nortriptyline 2.08 mM, paroxetine 3.75 mM, sertraline 1.88 mM, fluvoxamine 2.81 mM; for Binding to NR1-1b S1S2 in intrinsic and extrinsic fluorescence assays: concentrations as high as 5.21 mM; for λ max of the NR1-1b drug bound complex: excitation 290 nm, 25°C, apo 326.24 nm, drug at final quenching concentration
T1 construct: (His)8-TSG-LVPRG(thrombin cut site)-S1(394-544)-GT-S2(663-800); (His)8-TSG-LVPRG (His8 tag with thrombin cut site) (N); made in house; host or cells: E. coli Origami B(DE3)
Experimental: (§1) Intrinsic fluorescence studies were performed in a Cary Eclipse fluorometer at 25°C. All emission scans were acquired from 300 to 400 nm upon excitation at 290 nm, with 10 nm excitation and emission slit widths in a 10 mm-path-length cell. Excitation was performed at 290 nm to minimize interference from both tyrosine residues in the NMDA NR1-1b S1S2 domain as well as the aromatic antidepressants being studied. Before data acquisition, samples were incubated for thirty seconds in the sample holder at 25°C. […] Thus, data was reported without a buffer subtraction.
(§2) All antidepressants were solubilized in 100% methanol to the highest attainable concentrations. To account for any effects methanol had on fluorescence intensity, protein spectra with methanol were collected, allowing direct comparison between samples with and without antidepressant. Each data set consisted of at least three independent emission spectra of identically prepared samples. The data is reported with error determined at the 95% confidence level.
The fluorescence intensity of the NR1-1b S1S2 domain was determined in the presence and absence of eachantidepressant with the appropriate blank subtraction. […] For all samples, the final concentration of methanol was kept at 1.8%.

[2] = target: T1, NMDA NR1-1b S1S2 domain; assay: Extrinsic ANS fluorescence; details: ANS 1 : 1 with 5.29 μM NR1-1b S1S2, excitation 380 nm; drug concentrations as in Figure 4
Experimental: Extrinsic fluorescence studies were performed in a Cary Ec-lipse fluorometer at 25°C. All emission scans were acquired from 400 to 600 nm after excitation at 380 nm with 20 nm slit widths for emission and excitation in a 10 mm-path-length cell. Before data acquisition, samples were incubated for thirty seconds in the sample holder at 25°C. Blanks were collected both for the antidepressants and the NR1-1b S1S2 domain. Three emission spectra of identicallyprepared samples were averaged for each plot. 8-Anilino-1-naphthalenesulfonic acid (ANS, TCI America), in a 1 : 1 molar ratio, was added to 5.29 μM of the NR1-1b S1S2 domain premixed with antidepressant (at final concentrations as above for intrinsic quenching studies in addition to the SSRIs fluoxetine (8.62 μM) and fluvoxamine (2.81 mM) and the SNRI venlafaxine (29.07 μM)). As with all intrinsic assays, total methanol concentration was kept at 1.8%. Plots of intensity versus wavelength were constructed from averaged emission spectra.

[3] = target: T1, NMDA NR1-1b S1S2 domain; assay: Stern-Volmer analysis, acrylamide quenching of tryptophan fluorescence; details: acrylamide 16.3 to 113.9 mM, 5.29 μM NR1-1b S1S2 premixed with antidepressant; apo 1.61
From the text: Plots of (F 0/F) −1 versus acrylamide concentration were constructed.

[4] = target: T1, NMDA NR1-1b S1S2 domain; assay: Kd determination by intrinsic tryptophan fluorescence (double reciprocal, Benesi-Hildebrand plot); details: 5.29 μM NR1-1b S1S2, buffer 3 pH 6.5, 25°C, error at 95% confidence level
Experimental: as §1
as §2, with “Protein samples were at a final concentration of 5.29 μM in buffer 3 (10 mM MES, pH 6.5, 25 mM NaCl, 1 mM glycine). All” for “All”
A double reciprocal plot was used to determine Kd, which derives from the Benesi-Hildebrand relationship, provided there is a 1 : 1 binding stoichiometry. […] When 1/ΔF is plotted against 1/[L], a linear relationship exists. The intercept on the x-axis is − K d.. […]

T1 sequence (P35439 394-544): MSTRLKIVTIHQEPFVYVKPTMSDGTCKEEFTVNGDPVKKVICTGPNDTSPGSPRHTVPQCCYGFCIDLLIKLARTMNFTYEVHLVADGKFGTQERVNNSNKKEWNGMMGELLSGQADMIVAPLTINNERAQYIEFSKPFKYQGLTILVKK
T1 sequence (P35439 663-800): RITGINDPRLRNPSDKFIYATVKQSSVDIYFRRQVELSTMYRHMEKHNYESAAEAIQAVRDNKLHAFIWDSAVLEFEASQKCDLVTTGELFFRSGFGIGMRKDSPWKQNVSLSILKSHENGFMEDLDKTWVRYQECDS

Binding to NR1-1b S1S2 by intrinsic tryptophan fluorescence [1] | ANS emission spectrum of the NR1-1b S1S2 complex versus ANS bound to apo S1S2 (binding) [2] | Binding to NR1-1b S1S2 in intrinsic and extrinsic fluorescence assays [1] | Binding to NR1-1b S1S2 in intrinsic and extrinsic fluorescence assays ([1]; listed as Citalopram) | λ max of the NR1-1b drug bound complex [1] [nm] | λ max of the NR1-1b drug bound complex ([1]; listed as Maprotiline) [nm] | Change of tryptophan fluorescence emission upon binding ([1]; intensity versus apo NR1-1b S1S2) | K sv [3] [M⁻¹] | Kd [4] [µM] | Compound
binding | significantly different |  |  | 322.04 ± 1.83 | 322.04 | increases, rather than quenches | 5.92 |  | CNCCCC12CCC(c3ccccc31)c1ccccc12 [maprotiline]
binding | significantly different |  |  | 328.3 |  |  | 3.06 |  | Fc1ccc([C@@H]2CCNC[C@H]2COc2ccc3c(c2)OCO3)cc1 [paroxetine]
binding | significantly different |  |  | 327.27 |  |  | 3.02 | 1090 ± 240 | CC(CN(C)C)CN1c2ccccc2CCc2ccccc21 (centres unmarked) [trimipramine]

Further lines, the molecule ahead of its results:

Compound | Binding to NR1-1b S1S2 by intrinsic tryptophan fluorescence [1] | ANS emission spectrum of the NR1-1b S1S2 complex versus ANS bound to apo S1S2 (binding) [2] | Binding to NR1-1b S1S2 in intrinsic and extrinsic fluorescence assays [1] | Binding to NR1-1b S1S2 in intrinsic and extrinsic fluorescence assays ([1]; listed as Citalopram) | λ max of the NR1-1b drug bound complex [1] [nm] | λ max of the NR1-1b drug bound complex ([1]; listed as Maprotiline) [nm] | Change of tryptophan fluorescence emission upon binding ([1]; intensity versus apo NR1-1b S1S2) | K sv [3] [M⁻¹] | Kd [4] [µM]
COc1ccc(C(CN(C)C)C2(O)CCCCC2)cc1 (centres unmarked) [venlafaxine] | did not; also recorded: neither of which showed binding | confirmed the binding |  |  |  |  |  |  | 
CN(C)CCCC1(c2ccc(F)cc2)OCc2cc(C#N)ccc21 (centres unmarked) [citalopram] | did not |  | no binding | no evidence of binding |  |  |  |  | 
COCCCC/C(=N\OCCN)c1ccc(C(F)(F)F)cc1 [fluvoxamine] | binding | significantly different |  |  | 328.57 |  |  | 3.77 | 
CNCCCN1c2ccccc2CCc2ccccc21 [desipramine] | binding |  |  |  | 326.77 |  |  | 2.67 | 
CNCCC(Oc1ccc(C(F)(F)F)cc1)c1ccccc1 (centres unmarked) [fluoxetine] | neither of which showed binding | confirmed the binding |  |  |  |  |  |  | 
